For this data set, the system named is Prox-1. As to the kind of experiment: Prox-1 antisense morpholino knockdown in Xenopus embryos, whole-mount in situ hybridisation for Prox1 and morphometry. It is filed as in vivo, Xenopus laevis. Conditions: for reduction of total Prox-1 positive area: as compared to control tadpoles. The protocol: In a second example 25 ng of Prox-1 antisense morpholino oligonucleotides (Prox-1 MOs) was microinjected in a 1-cell stage Xenopus, in order to investigate the influence on the development of the lymphatic system. Prox1 is known to be expressed exclusively in lymphatic but not in blood vascular endothelial cells. Xenopus laevis embryos were obtained by artificial fertilization using standard techniques and sexually mature adult frogs purchased from Nasco Biology (Fort Atkinson, Wis.). The Prox-1 MOs, 5′-[…]-3′, were purchased from Gene Tools (Corvallis, Oreg.) and designed around the ATG codon. As ATG-specific morpholinos lower translation—but not transcription—of the target gene, we used whole embryo mount in situ hybridisation for Prox1 to visualize the defects in lymphatic vascular development. The 5′ nucleotide sequence of Prox-1 was obtained using 5′ RACE using primers based on published Xenopus laevis cDNA (GenBank # AB008773). To visualise Prox-1 expression pattern, embryos were collected at different developmental stages (according to Nieuwkoop and Faber), fixed and submitted to whole-mount in situ hybridisation according Harland (Harland, 1991), with the exception that BM purple was used as a substrate. The Prox-1 digoxigenin-labeled riboprobe used was constructed from a 950 bp cDNA fragment (GenBank # AB008773), which was cloned into pGEMTeasy and linearised with AatII to get SP6 antisense probe. After in situ hybridisation the embryos where bleached, cleared and stored in glycerol until analysed. Analysis was performed using a Zeiss Axioplan 2 imaging microscope equipped with a Axiocam HrC camera and the KS300 morphometry software. The total ISH-region was divided into 3 different regions where the first region represents the ventral side the tail, a second region where the dorsal migration of prox-1 positive cells takes place and finally a third region which represents the dorsal side. For all regions, length of positive staining was measured, followed by segmentation of the ISH-area by hue, lightness and saturation for defining the true stained area. A value of migration is given by the cell that traveled furthest across the tail. In non-morpholino treated Xenopus we observed that the normal lymphatic system starts developing at the jugular region of the tadpole around developmental stage 29/30. Apart from expression in non-lymphatic tissues such as the pronephros and the eye, the Prox-1 expression at this stage seems to be restricted to the jugular region. At the following stage (31-32), the staining in the jugular region is expanded to what will become the future lymphsacs. The region of the future anterior lymph hearts as well as the ventral caudal region show intense Prox-1 positive signal too. By stage 33/34 the prox positive cells in the caudal region start the formation of the ventral caudal lymphatic vessel. Prox-1 positive lymphatic cells are migrating from the ventral to the dorsal region and this event is culminating at stage 35/36 where the highest amount of migrating cells can be accounted for. The formation of what eventually will become the dorsal lymphatic vessel is also initiated at this stage. By stage 37-38 a majority of the prox positive cells have reached the dorsal side where they are contributing to the formation of dorsal caudal lymphatic vessels. […] In the tail of the Prox-1 morphants dorsal migration of Pro-1 positive cells is dearly impaired. […]

Regarding “5′-CAGGCATCACTGGACTGTTATTGTG-3′ (all phosphorodiamidate morpholino (PMO)) [Prox-1 MOs, Prox-1 antisense morpholino oligonucleotides purchased from Gene Tools, designed around the ATG codon]”, for the setting “Prox1 knockdown”, the “formation of the lymph hearts and the rostral lymphatic structures” value is listed as “impaired”. Moreover, the “cardiogenesis (looping, septation and beating of the heart, and blood circulation)” value (Prox1 morphants) was “all normal”. Also, under “Prox1 morphants”, the “development of blood vessels (number of Msr-positive intersomitic vessels in anterior trunk, Msr-positive area in posterior trunk)” value is reported as “not affected”. Also, for the setting “Prox-1 morphants”, the “Prox-1 staining of the anterior region” value is on record as “clearly reduced”. For the setting “beyond stage 45”, the “edema in the head and anterior trunk” value was “manifest edema in the head and anterior trunk developed in most Prox1 knockdown embryos”. The “reduction of total Prox-1 positive area” value is, setting by setting: (stage 33/34) “about 60%”; (stage 35/36) about 50%; (stage 37/38) about 35%. Under “stage 35/36, 25 ng microinjected in 1-cell stage, vs control tadpoles”, the “reduction of dorsal migration of Prox-1 positive cells in the tail” value is on record as “about 55%”. In addition, where the note is “stage 37/38, 25 ng microinjected in 1-cell stage”, the “dorsal migration of Prox-1 positive cells in the tail” value is reported as “significantly reduced”.

The record behind these values is patent publication US20070107072A1, “Transgenic amphibian models for lymphatic vessel development” (priority 2003, published 2007).
